This is an account of results in patent US8551999B2, “Heterocyclic compound and pharmaceutical composition thereof” (Otsuka Pharmaceutical Co., Ltd., priority 2007, dated 2013).

Broadly, the melting point is the temperature of the solid-liquid transition.

`Cc1cc(C(F)(F)F)ccc1C(=O)Nc1ccc(Oc2ccc3cc(C(=O)N4CCN(Cc5ccc(OC(C)C)cc5)CC4)n(C)c3c2)nc1.Cl`: the melting point fell in the range of 197.7 to 199.3 °C. Turning to `Cc1cc(C(=O)Nc2ccc(Oc3ccc4cc(C(=O)N5CCN(Cc6ccc(OCC(F)(F)F)cc6)CC5)n(C)c4c3)nc2)ccc1Cl.Cl`, the melting point was found to be 182.9 °C. Next, `COc1ccc(CN2CCN(C(=O)c3cc4cc(Oc5ccc(N(C)C(=O)c6ccc(C(F)(F)F)cc6Cl)cn5)ccc4n3C)CC2)cc1.O=C(O)C(=O)O` [Example 16, 2-Chloro-N-(6-{2-[4-(4-methoxybenzyl)piperazine-1-carbonyl]-1-methyl-1H-indol-5-yloxy}pyridin-3-yl)-N-methyl-4-trifluoromethyl-benzamide oxalate]: 163 to 165 °C; `Br.COc1ccc(CN2CCN(C(=O)c3cc4cc(Oc5ccc(NC(=O)c6ccc(C(F)(F)F)cc6C)cn5)ccc4n3C)CC2)cc1` [Example 14, N-(6-{2-[4-(4-Methoxybenzyl)piperazine-1-carbonyl]-1-methyl-1H-indol-5-yloxy}pyridin-3-yl)-2-methyl-4-trifluoromethylbenzamide hydrobromide]: 249 to 251 °C.

The compound `Br.Br.Cc1cc(Oc2ccc3c(c2)cc(C(=O)N2CCN(Cc4cccnc4)CC2)n3C)ncc1NC(=O)c1ccc(C(F)(F)F)cc1` [Example 404, N-{4-Methyl-6-[1-methyl-2-(4-pyridin-3-ylmethylpiperazine-1-carbonyl)-1H-indol-5-yloxy]pyridin-3-yl}-4-trifluoromethyl-benzamide dihydrobromide] displayed a melting point of 215 to 217 °C. The result for `CS(=O)(=O)O.CS(=O)(=O)O.Cc1c(Oc2ccc(NC(=O)c3ccc(C(F)(F)F)cc3)cn2)ccc2c1cc(C(=O)N1CCN(Cc3ccccn3)CC1)n2C` [Example 234, N-{6-[1,4-Dimethyl-2-(4-pyridin-2-ylmethylpiperazine-1-carbonyl)-1H-indol-5-yloxy]pyridin-3-yl}-4-trifluoromethylbenzamide bismethanesulfonate] reads 149 to 150 °C. `CCCOc1ccc(CN2CCN(C(=O)c3cc4ccc(Oc5ccc(N(C)C(=O)c6ccc(C)cc6)cn5)cc4n3C)CC2)cc1.Cl` displayed a melting point of 231.2 to 231.8 °C. The result for `Br.CN(c1ccc(C(F)(F)F)cc1)c1ccc(Oc2ccc3c(c2)cc(C(=O)N2CCN(Cc4ccc5c(c4)OCO5)CC2)n3C)nc1` [Example 335, (4-Benzo[1,3]dioxol-5-ylmethylpiperazin-1-yl)(1-methyl-5-{5-[methyl(4-trifluoromethylphenyl)amino]pyridin-2-yloxy}-1H-indol-2-yl)methanone hydrobromide] reads 211 to 215 °C; that for `COCc1ccc(CN2CCN(C(=O)c3cc4cc(Oc5ccc(N(C)C(=O)c6ccc(Cl)c(Cl)c6)cn5)ccc4n3C)CC2)cc1.O=C(O)/C=C\C(=O)O` [Example 376, 3,4-Dichloro-N-(6-{2-[4-(4-methoxymethylbenzyl)piperazine-1-carbonyl]-1-methyl-1H-indol-5-yloxy}pyridin-3-yl)-N-methyl-benzamide maleate], 100 to 101 °C; that for `Br.CC(C)Cc1ccc(CN2CCN(C(=O)c3cc4ccc(Oc5ccc(NC(=O)c6ccc(Cl)c(Cl)c6)cn5)cc4n3C)CC2)cc1` [Example 260, 3,4-Dichloro-N-(6-{2-[4-(4-isobutylbenzyl)piperazine-1-carbonyl]-1-methyl-1H-indol-6-yloxy}pyridin-3-yl)benzamide hydrobromide], 255.8 to 257.4 °C.

`Br.CCn1c(C(=O)N2CCN(Cc3ccc4c(c3)OCO4)CC2)cc2cc(Oc3ccc(N(C)C(=O)c4ccc(C(F)(F)F)cc4)cn3)ccc21` [Example 344, N-{6-[2-(4-Benzo[1,3]dioxol-5-ylmethylpiperazine-1-carbonyl)-1-ethyl-1H-indol-5-yloxy]pyridin-3-yl}-N-methyl-4-trifluoromethyl-benzamide hydrobromide] came in with a melting point of 179 to 183 °C. The result for `CN(c1ccc(Oc2ccc3c(c2)cc(C(=O)N2CCN(Cc4ccc(OCC(F)(F)F)cc4)CC2)n3C)nc1)S(=O)(=O)c1ccc(C(F)(F)F)cc1` [Example 527, N-Methyl-N-[6-(1-methyl-2-{4-[4-(2,2,2-trifluoroethoxy)benzyl]-piperazine-1-carbonyl}-1H-indol-5-yloxy)pyridin-3-yl]-4-tri-fluoromethylbenzenesulfonamide] reads 191.8 to 194.4 °C; that for `Br.Br.Cn1c(C(=O)N2CCN(Cc3cccnc3)CC2)cc2cc(Oc3ccc(NC(=O)c4ccc(C(F)(F)F)cc4)cn3)ccc21` [Example 558, N-{6-[1-Methyl-2-(4-pyridin-3-ylmethylpiperazine-1-carbonyl)-1H-indol-5-yloxy]pyridin-3-yl}-4-trifluoromethylbenzamide dihydrobromide], 201 to 204 °C. `CCOc1ccc(CN2CCN(C(=O)c3cc4cc(Oc5ccc(N(C)C(=O)c6ccc(C(F)(F)F)cc6)cn5)ccc4n3C)CC2)cn1.O=C(O)/C=C\C(=O)O` [Example 423, N-(6-{2-[4-(6-Ethoxypyridin-3-ylmethyl)piperazine-1-carbonyl]-1-methyl-1H-indol-5-yloxy}pyridin-3-yl)-N-methyl-4-trifluoromethyl-benzamide maleate] displayed a melting point of 149 to 151 °C. Take `CCOc1ccc(CN2CCN(C(=O)c3cc4cc(Oc5ccc(N(C)C(=O)c6ccc(Cl)c(Cl)c6)cn5)ccc4n3C)CC2)cc1.CS(=O)(=O)O` [Example 361, 3,4-Dichloro-N-(6-{2-[4-(4-ethoxybenzyl)piperazine-1-carbonyl]-1-methyl-1H-indol-5-yloxy}pyridin-3-yl)-N-methylbenzamide methanesulfonate]: the melting point was 168 to 170 °C. `Br.CN(C(=O)c1ccc(C(F)(F)F)cc1)c1ccc(Oc2ccc3c(c2)cc(C(=O)N2CCN(Cc4ccc(F)cc4)CC2)n3C)nc1` [Example 549, N-(6-{2-[4-(4-Fluorobenzyl)piperazine-1-carbonyl]-1-methyl-1H-indol-5-yloxy}pyridin-3-yl)-N-methyl-4-trifluoromethylbenzamide hydrobromide]: the melting point fell in the range of 218 to 220 °C. The result for `CC(C)CCOc1ccc(CN2CCN(C(=O)c3cc4ccc(Oc5ccc(N(C)S(=O)(=O)c6ccc(Cl)c(Cl)c6)cn5)cc4n3C)CC2)cc1` [Example 516, 3,4-Dichloro-N-methyl-N-[6-(1-methyl-2-{4-[4-(3-methylbutoxy)-benzyl]piperazine-1-carbonyl}-1H-indol-6-yloxy)pyridin-3-yl]-benzenesulfonamide] reads 145.9 to 147.1 °C; that for `COc1ccc(CN2CCN(C(=O)c3cc4cc(Oc5ccc(NC(=O)c6ccc(C(F)(F)F)cc6)cn5)ccc4n3C)CC2)cn1.O=C(O)/C=C\C(=O)O` [Example 348, N-(6-{2-[4-(6-Methoxypyridin-3-ylmethyl)piperazine-1-carbonyl]-1-methyl-1H-indol-5-yloxy}pyridin-3-yl)-4-trifluoromethylbenzamide maleate], 135 to 138 °C. Next, `Cc1ccc(S(=O)(=O)N(C)c2ccc(Oc3ccc4cc(C(=O)N5CCN(Cc6ccc(OCC(F)F)cc6)CC5)n(C)c4c3)nc2)cc1` [Example 524, N-[6-(2-{4-[4-(2,2-Difluoroethoxy)benzyl]piperazine-1-carbonyl}-1-methyl-1H-indol-6-yloxy)pyridin-3-yl]-4,N-dimethylbenzene-sulfonamide]: 121.9 to 122.5 °C; `Br.CN(C(=O)c1ccc(C(F)(F)F)cc1)c1ccc(Oc2ccc3c(c2)cc(C(=O)N2CCN(Cc4ccc(C(F)(F)F)cc4)CC2)n3C)nc1` [Example 553, N-Methyl-N-(6-{1-methyl-2-[4-(4-trifluoromethylbenzyl)piperazine-1-carbonyl]-1H-indol-5-yloxy}pyridin-3-yl)-4-trifluoromethyl-benzamide hydrobromide]: 254 to 260 °C (dec.). Take `Br.CCCc1ccc(CN2CCN(C(=O)c3cc4ccc(Oc5ccc(NC(=O)c6ccc(C(F)(F)F)cc6)cn5)cc4n3C)CC2)cc1` [Example 478, N-(6-{1-Methyl-2-[4-(4-propylbenzyl)piperazine-1-carbonyl]-1H-indol-6-yloxy}pyridin-3-yl)-4-trifluoromethylbenzamide hydrobromide]: the melting point lay within 267 to 268.2 °C. The result for `CC(C)Oc1ccc(CN2CCN(C(=O)c3cc4ccc(Oc5ccc(N(C)C(=O)c6ccc(OC(F)F)cc6)cn5)cc4n3C)CC2)cc1.Cl` reads 229.7 to 230.4 °C; that for `Br.CN(C(=O)c1ccc(Cl)c(Cl)c1)c1ccc(Oc2ccc3cc(C(=O)N4CCN(Cc5ccc(OCC(F)F)cc5)CC4)n(C)c3c2)nc1` [Example 483, 3,4-Dichloro-N-[6-(2-{4-[4-(2,2-difluoroethoxy)benzyl]piperazine-1-carbonyl}-1-methyl-1H-indol-6-yloxy)pyridin-3-yl]-N-methyl-benzamide hydrobromide], 182.4 to 184.6 °C.

`Br.Cn1c(C(=O)N2CCN(Cc3ccc(C#N)cc3)CC2)cc2cc(Oc3ccc(NC(=O)c4ccc(Cl)c(Cl)c4)cn3)ccc21` [Example 556, 3,4-Dichloro-N-(6-{2-[4-(4-cyanobenzyl)piperazine-1-carbonyl]-1-methyl-1H-indol-5-yloxy}pyridin-3-yl)benzamide hydrobromide]: the melting point was 267 to 272 °C (dec.). As for `Br.Cn1c(C(=O)N2CCN(Cc3ccc(C(F)(F)F)cc3)CC2)cc2ccc(Oc3ccc(NC(=O)c4ccc(Cl)c(Cl)c4)cn3)cc21` [Example 262, 3,4-Dichloro-N-(6-{1-methyl-2-[4-(4-trifluoromethylbenzyl)-piperazine-1-carbonyl]-1H-indol-6-yloxy}pyridin-3-yl)benzamide hydrobromide], the melting point was 259.4 to 260.7 °C. The result for `Br.Cc1c(Oc2ccc(N(C)C(=O)c3ccc(C(F)(F)F)cc3)cn2)ccc2c1cc(C(=O)N1CCN(Cc3ccc(C#N)cc3)CC1)n2C` [Example 425, N-(6-{2-[4-(4-Cyanobenzyl)piperazine-1-carbonyl]-1,4-dimethyl-1H-indol-5-yloxy}pyridin-3-yl)-N-methyl-4-trifluoromethylbenzamide hydrobromide] reads 249 to 252 °C.
